Results from patent publication US9120812B2, “Pyrimidooxazocine derivatives as mTOR-inhibitors” (SANOFI, priority 2012, dated 2015).

How the values were obtained:
U87MG tumour cells = assay: Test of in vitro proliferation of U87MG tumour cells; assay type: cell-based; settings: Homo sapiens, U-87 MG, 72 h, U87MG cells, 72 hours; read-out: U87 Cell Proliferation IC50
Method: Model 4: Test of in vitro Proliferation of U87MG Tumour Cells.
The cell growth is determined with the reagent CellTiter 96 AQueous One Solution Cell Proliferation Assay from Promega (Cat. No. G3581).

PI3Kα (p110α/p85α) = PI3Kα (p110α/p85α) (Homo sapiens (Human), UniProt P42336); assay: PI3Kα enzymatic test by measuring the consumption of ATP; assay type: biochemical
Method in brief: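 p110α/p85α (1.7 μg/ml) with 50 μM PIP2 and 2 μM ATP in pH 7.5 Tris buffer with EGTA, MgCl2, Chaps, DTT; reaction 90 min. Remaining ATP measured by luciferin/luciferase luminescence; IC50 from threefold serial dilutions spanning at least 10 000-fold.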

Akt-pS473 in U87MG cells = settings: Homo sapiens, U-87 MG; for IC50: read-out: U87 Akt-pS473 % Inhibition or IC50, nM (IC50), U87MG cells
[1] = target: mTOR (human recombinant aa mTOR 1360-2549) (Homo sapiens (Human), UniProt P42345); assay: mTOR enzymatic test by TR-FRET (phosphorylation of GFP-4EBP1); assay type: biochemical
Method in brief: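 TR-FRET detection of GFP-4EBP1 phosphorylation by a terbium-labelled anti-phospho-Thr46 antibody. Kinase reaction ran 30 min at room temperature, was quenched with EDTA (10 mM final) plus Tb-antibody (2 nM final) and left 60 min. Emission at 520 and 490 nm after 340 nm excitation, reported as the 520/490 ratio.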

Sequence of PI3Kα (p110α/p85α) (P42336 whole entry): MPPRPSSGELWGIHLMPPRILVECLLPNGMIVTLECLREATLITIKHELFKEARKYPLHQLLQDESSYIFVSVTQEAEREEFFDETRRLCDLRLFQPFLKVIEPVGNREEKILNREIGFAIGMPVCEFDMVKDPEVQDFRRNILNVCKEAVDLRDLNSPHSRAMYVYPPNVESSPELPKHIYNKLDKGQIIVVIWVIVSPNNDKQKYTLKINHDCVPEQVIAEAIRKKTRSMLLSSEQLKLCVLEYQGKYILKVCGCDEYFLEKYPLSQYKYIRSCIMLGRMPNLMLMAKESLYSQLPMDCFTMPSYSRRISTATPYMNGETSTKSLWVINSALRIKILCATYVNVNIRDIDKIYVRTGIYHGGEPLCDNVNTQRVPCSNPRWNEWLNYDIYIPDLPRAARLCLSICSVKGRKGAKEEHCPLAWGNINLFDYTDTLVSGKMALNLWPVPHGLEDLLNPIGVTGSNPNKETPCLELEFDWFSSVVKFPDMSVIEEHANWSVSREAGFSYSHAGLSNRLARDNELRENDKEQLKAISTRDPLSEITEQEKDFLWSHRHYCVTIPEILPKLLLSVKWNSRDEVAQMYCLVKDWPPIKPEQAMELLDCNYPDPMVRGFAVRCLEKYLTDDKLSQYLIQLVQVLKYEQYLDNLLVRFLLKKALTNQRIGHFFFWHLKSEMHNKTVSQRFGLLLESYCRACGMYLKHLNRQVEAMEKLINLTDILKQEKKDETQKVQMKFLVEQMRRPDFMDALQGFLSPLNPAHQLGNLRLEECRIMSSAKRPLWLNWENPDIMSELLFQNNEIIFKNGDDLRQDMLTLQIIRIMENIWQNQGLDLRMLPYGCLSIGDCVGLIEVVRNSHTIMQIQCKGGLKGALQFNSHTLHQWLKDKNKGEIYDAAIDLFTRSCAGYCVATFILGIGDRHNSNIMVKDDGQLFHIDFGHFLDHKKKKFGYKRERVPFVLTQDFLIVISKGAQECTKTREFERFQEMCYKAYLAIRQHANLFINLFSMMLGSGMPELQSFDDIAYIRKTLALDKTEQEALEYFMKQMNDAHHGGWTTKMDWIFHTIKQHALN
Sequence of PI3Kα (p110α/p85α) (P27986 whole entry partner): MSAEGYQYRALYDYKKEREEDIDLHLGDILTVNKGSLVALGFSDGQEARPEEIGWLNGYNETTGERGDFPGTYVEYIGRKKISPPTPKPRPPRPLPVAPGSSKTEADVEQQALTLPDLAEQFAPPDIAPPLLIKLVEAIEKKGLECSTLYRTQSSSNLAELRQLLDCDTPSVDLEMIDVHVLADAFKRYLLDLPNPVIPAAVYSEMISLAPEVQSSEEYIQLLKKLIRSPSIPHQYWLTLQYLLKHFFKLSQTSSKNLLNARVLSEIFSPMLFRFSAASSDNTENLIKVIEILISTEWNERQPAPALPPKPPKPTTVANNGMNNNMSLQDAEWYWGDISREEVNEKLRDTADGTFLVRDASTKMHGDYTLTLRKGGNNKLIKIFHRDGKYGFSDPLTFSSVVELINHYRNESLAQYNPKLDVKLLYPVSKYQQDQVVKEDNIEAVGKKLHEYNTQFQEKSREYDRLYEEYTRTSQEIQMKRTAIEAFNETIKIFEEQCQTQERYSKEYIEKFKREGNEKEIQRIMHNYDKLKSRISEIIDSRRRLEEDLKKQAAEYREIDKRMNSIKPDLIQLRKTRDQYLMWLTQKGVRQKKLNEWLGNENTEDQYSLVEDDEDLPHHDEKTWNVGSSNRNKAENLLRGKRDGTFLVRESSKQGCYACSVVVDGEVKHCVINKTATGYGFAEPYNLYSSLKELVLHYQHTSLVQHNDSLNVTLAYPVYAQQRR
Sequence of mTOR (human recombinant aa mTOR 1360-2549) (P42345 1360-2549): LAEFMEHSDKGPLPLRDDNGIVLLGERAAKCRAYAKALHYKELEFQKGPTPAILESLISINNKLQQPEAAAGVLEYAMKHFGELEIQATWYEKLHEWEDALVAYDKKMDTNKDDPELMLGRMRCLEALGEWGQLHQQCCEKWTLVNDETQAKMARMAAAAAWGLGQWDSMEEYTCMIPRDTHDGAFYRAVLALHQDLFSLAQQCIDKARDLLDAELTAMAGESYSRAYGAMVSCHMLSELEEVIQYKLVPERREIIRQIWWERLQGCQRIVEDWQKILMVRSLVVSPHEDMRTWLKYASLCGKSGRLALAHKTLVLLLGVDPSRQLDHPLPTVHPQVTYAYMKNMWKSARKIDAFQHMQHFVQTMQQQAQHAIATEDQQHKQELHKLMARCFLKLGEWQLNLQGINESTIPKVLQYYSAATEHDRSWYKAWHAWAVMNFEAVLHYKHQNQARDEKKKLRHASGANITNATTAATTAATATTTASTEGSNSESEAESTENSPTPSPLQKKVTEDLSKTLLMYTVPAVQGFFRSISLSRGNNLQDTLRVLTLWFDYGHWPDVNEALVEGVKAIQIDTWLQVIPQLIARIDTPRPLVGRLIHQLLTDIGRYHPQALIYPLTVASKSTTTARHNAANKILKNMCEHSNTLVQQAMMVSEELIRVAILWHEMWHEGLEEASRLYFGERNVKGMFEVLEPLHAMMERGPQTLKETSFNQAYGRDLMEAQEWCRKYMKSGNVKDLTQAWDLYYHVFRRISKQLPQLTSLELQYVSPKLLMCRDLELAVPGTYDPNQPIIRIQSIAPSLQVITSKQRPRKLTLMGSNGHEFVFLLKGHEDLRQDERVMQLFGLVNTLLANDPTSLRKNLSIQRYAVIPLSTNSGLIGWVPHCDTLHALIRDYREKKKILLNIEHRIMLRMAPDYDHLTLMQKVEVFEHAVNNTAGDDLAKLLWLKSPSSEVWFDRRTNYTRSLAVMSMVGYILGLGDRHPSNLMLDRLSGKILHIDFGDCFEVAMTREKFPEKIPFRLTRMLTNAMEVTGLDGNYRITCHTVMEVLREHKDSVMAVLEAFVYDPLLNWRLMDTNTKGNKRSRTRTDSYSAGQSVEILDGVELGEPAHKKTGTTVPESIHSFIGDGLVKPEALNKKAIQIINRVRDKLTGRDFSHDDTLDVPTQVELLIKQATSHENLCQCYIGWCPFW

SMILES	IC50 (U87MG tumour cells)	PI3Ka IC50 (PI3Kα (p110α/p85α))	IC50 (Akt-pS473 in U87MG cells)	IC50 [1]	inhibition at 3 µM (Akt-pS473 in U87MG cells; read-out: U87 Akt-pS473 % Inhibition)
CCN1CC(C)(C)Oc2nc(N3CC4CCC(C3)O4)nc(-c3ccc(NC(=O)Nc4ccc(N5CCCCC5)nc4)c(F)c3)c2C1=O [Example 31, 1-{4-[6-Ethyl-8,8-dimethyl-2-(8-oxa-3-azabicyclo[3.2.1]oct-3-yl)-5-oxo-5,6,7,8-tetrahydro-9-oxa-1,3,6-triazabenzocyclohepten-4-yl]-2-fluorophenyl}-3-(3,4,5,6-tetrahydro-2H-[1,2′]bipyridinyl-5′-yl)urea]	35 nM	>10000 nM	17 nM	65 nM	–
CCN1CC(C)(C)Oc2nc(N3CCOC[C@@H]3C)nc(-c3ccc(NC(=O)O[C@H]4CCC[C@H]4O)cc3)c2C1=O [Example 53, {4-[6-Ethyl-8,8-dimethyl-2-((S)-3-methylmorpholin-4-yl)-5-oxo-5,6,7,8-tetrahydro-9-oxa-1,3,6-triazabenzocyclohepten-4-yl]phenyl}carbamic acid (1S,2R)-2-hydroxycyclopentyl ester]	2160 nM	>10000 nM	555 nM	222 nM	–
CCN1CC(C)(C)Oc2nc(N3CC4CCC(C3)O4)nc(-c3ccc(NC(=O)NC4CC4)c(F)c3)c2C1=O [Example 133, 1-Cyclopropyl-3-{4-[6-ethyl-8,8-dimethyl-2-(8-oxa-3-azabicyclo[3.2.1]oct-3-yl)-5-oxo-5,6,7,8-tetrahydro-9-oxa-1,3,6-triazabenzocyclohepten-4-yl]-2-fluorophenyl}urea]	219 nM	>10000 nM	92 nM	33 nM	–
CCN1CC(C)(C)Oc2nc(N3CC4CCC(C3)O4)nc(-c3ccc(NC(=O)Nc4ccc(C(F)(F)F)cc4F)cc3)c2C1=O [Example 154, 1-{4-[6-Ethyl-8,8-dimethyl-2-(8-oxa-3-azabicyclo[3.2.1]oct-3-yl)-5-oxo-5,6,7,8-tetrahydro-9-oxa-1,3,6-triazabenzocyclohepten-4-yl]phenyl}-3-(2-fluoro-4-trifluoromethylphenyl)urea]	97 nM	>10000 nM	54 nM	182 nM	–
CCN1CC(C)(C)Oc2nc(N3CC4CCC(C3)O4)nc(-c3ccc(NC(=O)Nc4cc(C)nc(C)c4)c(F)c3)c2C1=O [Example 58, 1-(2,6-Dimethylpyridin-4-yl)-3-{4-[6-ethyl-8,8-dimethyl-2-(8-oxa-3-azabicyclo[3.2.1]oct-3-yl)-5-oxo-5,6,7,8-tetrahydro-9-oxa-1,3,6-triazabenzocyclohepten-4-yl]-2-fluorophenyl}urea]	71 nM	9470 nM	20 nM	28 nM	–
CCNC(=O)Nc1ccc(-c2nc(N3CC4CCC(C3)O4)nc3c2C(=O)N(CCOC)CC(C)(C)O3)cc1 [Example 217, 1-Ethyl-3-{4-[6-(2-methoxyethyl)-8,8-dimethyl-2-(8-oxa-3-azabicyclo[3.2.1]oct-3-yl)-5-oxo-5,6,7,8-tetrahydro-9-oxa-1,3,6-triazabenzocyclohepten-4-yl]phenyl}urea]	1760 nM	>10000 nM	–	59 nM	80%
CCN1CC(C)(C)Oc2nc(N3CCOC[C@@H]3C)nc(-c3ccc(NC(=O)Nc4cc(OC)ccn4)c(F)c3)c2C1=O [Example 181, 1-{4-[6-Ethyl-8,8-dimethyl-2-((S)-3-methylmorpholin-4-yl)-5-oxo-5,6,7,8-tetrahydro-9-oxa-1,3,6-triazabenzocyclohepten-4-yl]-2-fluorophenyl}-3-(4-methoxypyridin-2-yl)urea]	1320 nM	7650 nM	285 nM	74 nM	–
CCN1CC(C)(C)Oc2nc(N3CC4CCC(C3)O4)nc(-c3ccc(NC(=O)Nc4ccc(F)cc4F)cc3)c2C1=O [Example 19, 1-(2,4-difluorophenyl)-3-{4-[6-ethyl-8,8-dimethyl-2-(8-oxa-3-azabicyclo[3.2.1]oct-3-yl)-5-oxo-5,6,7,8-tetrahydro-9-oxa-1,3,6-triazabenzocyclohepten-4-yl]phenyl}urea]	122 nM	6219 nM	28 nM	32 nM	–
CCN1CC(C)(C)Oc2nc(N3CCOC[C@@H]3C)nc(-c3ccc(NC(=O)NC)cc3F)c2C1=O [Example 11, 1-{4-[6-ethyl-8,8-dimethyl-2-((S)-3-methylmorpholin-4-yl)-5-oxo-5,6,7,8-tetrahydro-9-oxa-1,3,6-triazabenzocyclohepten-4-yl]-3-fluorophenyl}-3-methylurea]	271 nM	2300 nM	61 nM	13 nM	–
CCN1CC(C)(C)Oc2nc(N3CC4CCC(C3)O4)nc(-c3ccc(NC(=O)Nc4cnn(C)c4)c(F)c3)c2C1=O [Example 143, 1-{4-[6-Ethyl-8,8-dimethyl-2-(8-oxa-3-azabicyclo[3.2.1]oct-3-yl)-5-oxo-5,6,7,8-tetrahydro-9-oxa-1,3,6-triazabenzocyclohepten-4-yl]-2-fluorophenyl}-3-(1-methyl-1H-pyrazol-4-yl)urea]	295 nM	3180 nM	62 nM	19 nM	–
CCN1CC(C)(C)Oc2nc(N3CC4CCC(C3)O4)nc(-c3ccc(NC(=O)OC)cc3)c2C1=O [Example 105, {4-[6-Ethyl-8,8-dimethyl-2-(8-oxa-3-azabicyclo[3.2.1]oct-3-yl)-5-oxo-5,6,7,8-tetrahydro-9-oxa-1,3,6-triazabenzocyclohepten-4-yl]phenyl}carbamic acid methyl ester]	2690 nM	>10000 nM	360 nM	180 nM	–
CCN1CC(C)(C)Oc2nc(N3CCOC[C@@H]3C)nc(-c3ccc(NC(=O)NC4CC4)c(F)c3)c2C1=O [Example 150, 1-Cyclopropyl-3-{4-[6-ethyl-8,8-dimethyl-2-((S)-3-methylmorpholin-4-yl)-5-oxo-5,6,7,8-tetrahydro-9-oxa-1,3,6-triazabenzocyclohepten-4-yl]-2-fluorophenyl}urea]	201 nM	5800 nM	73 nM	40 nM	–
CCN1CC(C)(C)Oc2nc(N3CCOC[C@@H]3C)nc(-c3ccc(NC(=O)Nc4cc(C)nc(C)n4)cc3)c2C1=O [Example 91, 1-(2,6-Dimethylpyrimidin-4-yl)-3-{4-[6-ethyl-8,8-dimethyl-2-((S)-3-methylmorpholin-4-yl)-5-oxo-5,6,7,8-tetrahydro-9-oxa-1,3,6-triazabenzocyclohepten-4-yl]phenyl}urea]	410 nM	4640 nM	47 nM	53 nM	–
CCNC(=O)Nc1ccc(-c2nc(N3CC4CCC(C3)O4)nc3c2C(=O)N(CCC(=O)N(C)C)CC(C)(C)O3)cc1 [Example 8, 3-[4-[4-(3-ethylureido)phenyl]-8,8-dimethyl-2-(8-oxa-3-azabicyclo[3.2.1]oct-3-yl)-5-oxo-7,8-dihydro-5H-9-oxa-1,3,6-triazabenzocyclohepten-6-yl]-N,N-dimethylpropionamide]	3810 nM	>10000 nM	537 nM	44 nM	–
COc1ccc(NC(=O)Nc2ccc(-c3nc(N4CCOC[C@@H]4C)nc4c3C(=O)N(C3CCOCC3)CC(C)(C)O4)cc2F)cn1 [Example 189, 1-{4-[8,8-Dimethyl-2-((S)-3-methylmorpholin-4-yl)-5-oxo-6-(tetrahydropyran-4-yl)-5,6,7,8-tetrahydro-9-oxa-1,3,6-triazabenzocyclohepten-4-yl]-2-fluorophenyl}-3-(6-methoxypyridin-3-yl)urea]	451 nM	1890 nM	56 nM	62 nM	–
CCN1CC(C)(C)Oc2nc(N3CCOC[C@@H]3C)nc(-c3ccc(NC(=O)Nc4ccc(N5CCOCC5)nc4)c(F)c3)c2C1=O [Example 187, 1-{4-[6-Ethyl-8,8-dimethyl-2-((S)-3-methylmorpholin-4-yl)-5-oxo-5,6,7,8-tetrahydro-9-oxa-1,3,6-triazabenzocyclohepten-4-yl]-2-fluorophenyl}-3-(6-morpholin-4-ylpyridin-3-yl)urea]	67 nM	472 nM	22 nM	37 nM	–
CCN1CC(C)(C)Oc2nc(N3CC4CCC(C3)O4)nc(-c3ccc(NC(=O)NCCOC)c(F)c3)c2C1=O [Example 131, 1-{4-[6-Ethyl-8,8-dimethyl-2-(8-oxa-3-azabicyclo[3.2.1]oct-3-yl)-5-oxo-5,6,7,8-tetrahydro-9-oxa-1,3,6-triazabenzocyclohepten-4-yl]-2-fluorophenyl}-3-(2-methoxyethyl)urea]	5900 nM	>10000 nM	1990 nM	383 nM	–
CCNC(=O)Nc1ccc(-c2nc(N3CCOC[C@@H]3C)nc3c2C(=O)N(CC)CC(C)(C)O3)cc1F [Example 3, 1-Ethyl-3-{4-[6-ethyl-8,8-dimethyl-2-((S)-3-methylmorpholin-4-yl)-5-oxo-5,6,7,8-tetrahydro-9-oxa-1,3,6-triazabenzocyclohepten-4-yl]-2-fluorophenyl}urea]	242 nM	2110 nM	48 nM	18 nM	–
